Test results reported in US12569453B2, “Use of tapinarof for the treatment of atopic dermatitis” (Dermavant Sciences GmbH, priority 2018, dated 2026).

Columns and labels:
[1] = Phase II AD study: plasma PK samples; format: in vivo, human; settings: for concentration at 1 week: Week 1; for concentration at 2 week: Week 2; for concentration at 4 week: Week 4; for concentration at 8 week: Week 8
Method: Pharmacokinetics: A total of 5 blood samples for PK analysis of GSK2894512 were collected from each subject over the clinic visits at Weeks 1, 2, 4, 8, and 12. Plasma analysis was performed under the management of Bioanalytical Science and Toxicokinetics, DMPK, GSK.
Pharmacokinetics: Subjects with atopic dermatitis, BSA involvement >5% and <35%, excluding scalp, and Baseline IGA score of >3 at Baseline, participated in this study in which 2 concentrations of Tapinarof cream (0.5% and 1%) and a vehicle control were evaluated following application to all AD lesions (except on the scalp) once or twice daily for 12 weeks.
A total of 5 blood samples for PK analysis of Tapinarof were collected from each subject at the following clinic visits: Weeks 1, 2, 4, 8, and 12. Subjects were advised to provide PK samples during each of the following 3 time windows: 1 to 3 hours post application, 3 to 6 hours post application, and 6 to 12 hours post application.

[2] = rat subcutaneous 13-week toxicology study (NOAEL) and predicted safety margin; settings: in vivo, sc, rat subcutaneous 3 mg/kg/day, read-out: NOAEL AUC(0-24)
Description: The predicted maximum systemic exposure to Tapinarof in this study was expected to be lower than the no observed adverse effects level (NOAEL) identified in nonclinical toxicology studies.

[3] = minipig 28 day toxicology, formulation F (NOAEL); format: in vivo; settings: 3% [60 mg/kg/day]
[4] = human, plasma, topical, 0.5 % cream BID, Subject 111301, 0.5% BID
[5] = human, plasma, topical, 0.5 % cream BID, Subject 316851, 0.5% BID
[6] = human, plasma, topical, 1 % cream BID, Subject 110406, 1% BID
[7] = human, plasma, topical, 1 % cream BID, Subject 110604, 1% BID

With `CC(C)c1c(O)cc(/C=C/c2ccccc2)cc1O` [Tapinarof, 3,5-Dihydroxy-4-isopropyl-trans-stilbene] the “subjects with plasma concentration >0.84 ng/mL (minipig NOAEL Cmax)” value (shortened to “subjects”) ([1]; 0.5% BID) was 4 subjects, the “subjects” value ([1]; 0.5% QD) was 2 subjects and the “subjects” value ([1]; 1% BID) was 5 subjects. For the same compound, the “subjects” value ([1]; 1% QD) was 2 subjects, the “subjects” value ([1]; all Tapinarof groups, out of 247) was 13 subjects and the concentration at 1 week [1, 4] was 6.09 ng/mL. For the same compound, the concentration at 2 week [1, 4] was 0.438 ng/mL, the concentration at 4 week [1, 4] was 0.649 ng/mL and the concentration at 1 week [1, 5] was 0.362 ng/mL. For the same compound, the concentration at 2 week [1, 5] was 0.106 ng/mL, the concentration at 8 week [1, 5] was 1.93 ng/mL and the concentration at 1 week [1, 6] was 0.233 ng/mL. The concentration at 2 week [1, 6] was 0.347 ng/mL, the concentration at 4 week [1, 6] was 4.9 ng/mL and the concentration at 8 week [1, 6] was 0.514 ng/mL. The concentration at 1 week [1, 7] was 1.48 ng/mL, the concentration at 2 week [1, 7] was 0.266 ng/mL and the concentration at 4 week [1, 7] was 0.43 ng/mL. The concentration at 8 week [1, 7] was 0.0716 ng/mL, the concentration at 12 week ([1]; human, plasma, topical, 1 % cream BID, Subject 110604, 1% BID, Week 12) was 0.311 ng/mL and the concentration at 2 week ([1]; human, plasma, topical, 1 % cream BID, Subject 316651, 1% BID) was 181 ng/mL. The quantifiable plasma samples ([1]; of 753 samples from subjects on active treatment, LLOQ 0.04 ng/mL) was 348, the AUC(0-t) [2] was 99 ng·h/mL and the “gender averaged NOAEL Cmax” value [3] was 0.84 ng/mL.
